From patent US10980781B2, “6-amino-2,4-dihydropyrano [2,3-c] pyrazoles and methods of use” (Purdue Research Foundation, priority 2017, dated 2021)

Target: USP7 (Homo sapiens (Human), UniProt Q93009)
Test: USP7 inhibition assay with Ub-Rho 110 substrate (fluorescence progress curves)
Assay type: biochemical
Details: 100 μM compound; 1 nM USP7, 200 nM Ub-Rho 110, 3% DMSO, triplicate
Method: Each assay was measured in triplicate. […] All reactions contained a final concentration of 3% DMSO. […] The percent inhibition was calculated using Equation (1).
The assay design was identical to as described above. The percent inhibition was calculated using Equation 1 and fit to Equation 2 by use of the Enzyme Kinetics Module of Sigma Plot (v13:Systat Software Inc.), to determine the IC50 value.

USP7, sequence (Q93009 whole entry): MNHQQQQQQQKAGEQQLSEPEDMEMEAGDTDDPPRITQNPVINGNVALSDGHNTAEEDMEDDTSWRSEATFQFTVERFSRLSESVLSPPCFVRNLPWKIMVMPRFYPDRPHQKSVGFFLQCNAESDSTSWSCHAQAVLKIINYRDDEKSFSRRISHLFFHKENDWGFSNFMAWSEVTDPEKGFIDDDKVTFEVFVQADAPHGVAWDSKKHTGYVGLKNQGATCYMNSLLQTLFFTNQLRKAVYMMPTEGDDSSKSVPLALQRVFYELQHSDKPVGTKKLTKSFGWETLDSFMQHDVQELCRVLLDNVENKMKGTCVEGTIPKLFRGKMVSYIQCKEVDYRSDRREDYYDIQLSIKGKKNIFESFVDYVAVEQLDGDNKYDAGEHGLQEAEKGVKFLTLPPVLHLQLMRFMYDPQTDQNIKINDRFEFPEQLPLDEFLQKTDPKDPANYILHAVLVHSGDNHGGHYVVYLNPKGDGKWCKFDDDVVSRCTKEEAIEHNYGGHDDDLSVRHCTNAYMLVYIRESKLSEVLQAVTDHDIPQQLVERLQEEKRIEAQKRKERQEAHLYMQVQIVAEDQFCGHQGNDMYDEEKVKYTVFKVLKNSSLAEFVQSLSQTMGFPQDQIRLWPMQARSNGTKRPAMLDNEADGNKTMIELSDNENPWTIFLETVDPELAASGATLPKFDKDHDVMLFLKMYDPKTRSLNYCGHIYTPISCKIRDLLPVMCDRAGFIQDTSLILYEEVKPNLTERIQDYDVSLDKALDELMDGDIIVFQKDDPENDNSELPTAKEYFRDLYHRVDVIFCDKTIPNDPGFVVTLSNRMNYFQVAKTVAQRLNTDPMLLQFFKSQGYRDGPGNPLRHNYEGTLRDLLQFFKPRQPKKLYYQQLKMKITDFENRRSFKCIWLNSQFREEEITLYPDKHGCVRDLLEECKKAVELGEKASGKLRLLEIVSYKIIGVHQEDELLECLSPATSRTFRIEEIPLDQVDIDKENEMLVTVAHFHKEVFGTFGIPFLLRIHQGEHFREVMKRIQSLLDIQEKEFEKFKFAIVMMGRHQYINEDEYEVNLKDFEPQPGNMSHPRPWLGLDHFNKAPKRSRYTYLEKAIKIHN

Row | SMILES | inhibition at 100 µM [%]
1 | COc1ccc(C2C(C#N)=C(N)Oc3n[nH]c(-c4cc(C)sc4C)c32)cc1Br (stereo not drawn) [Compound 7n, 6-Amino-4-(3-bromo-4-methoxyphenyl)-3-(2,5-dimethylthiophen-3-yl)-2,4-dihydropyrano[2,3-c]pyrazole-5-carbonitrile] | 32 ± 3
2 | COc1ccc(C2C(C#N)=C(N)Oc3n[nH]c(-c4cc(C)sc4C)c32)cc1I (stereo not drawn) [Compound 7o, 6-Amino-3-(2,5-dimethylthiophen-3-yl)-4-(3-iodo-4-methoxyphenyl)-2,4-dihydropyrano[2,3-c]pyrazole-5-carbonitrile] | 29 ± 6
3 | CCOCNC1=C(C#N)C(c2ccc(OC)c(Br)c2)c2c(-c3cccs3)nn(C)c2O1 (stereo not drawn) [Compound 11, 4-(3-Bromo-4-methoxyphenyl)-6-((ethoxymethyl)amino)-1-methyl-3-(thiophen-2-yl)-1,4-dihydropyrano [2,3-c]pyrazole-5-carbonitrile] | 0
4 | CNC1=C(C#N)C(c2ccc(OC)c(Br)c2)c2c(n[nH]c2-c2cccs2)O1 (stereo not drawn) [Compound 13, 4-(3-Bromo-4-methoxyphenyl)-6-(methylamino)-3-(thiophen-2-yl)-2,4-dihydropyrano[2,3-c]pyrazole-5-carbonitrile] | 47 ± 1
5 | COc1ccc(C2C(C#N)=C(N)Oc3nn(C(C)=O)c(-c4cccs4)c32)cc1Br (stereo not drawn) [Compound 14, 2-Acetyl-6-amino-4-(3-bromo-4-methoxyphenyl)-3-(thiophen-2-yl)-2,4-dihydropyrano[2,3-c]pyrazole-5-carbonitrile] | 85 ± 2
6 | COc1ccc(C2C(C#N)=COc3n[nH]c(-c4cccs4)c32)cc1Br (stereo not drawn) [Compound 15, 4-(3-Bromo-4-methoxyphenyl)-3-(thiophen-2-yl)-2,4-dihydropyrano [2,3-c]pyrazole-5-carbonitrile] | 0

The remaining lines, values ahead:

Row | inhibition at 100 µM [%] | SMILES
7 | 0 | COc1ccc(C2C(C#N)=C(N)Oc3c2c(-c2cccs2)nn3C)cc1Br (stereo not drawn) [Compound 9a, 6-Amino-4-(3-bromo-4-methoxyphenyl)-1-methyl-3-(thiophen-2-yl)-1,4-dihydropyrano[2,3-c]pyrazole-5-carbonitrile]
8 | 0 | COc1ccc(C2C(C#N)=C(N)Oc3c2c(-c2cccs2)nn3C)cc1I (stereo not drawn) [Compound 9b, 6-Amino-4-(3-iodo-4-methoxyphenyl)-1-methyl-3-(thiophen-2-yl)-1,4-dihydropyrano[2,3-c]pyrazole-5-carbonitrile]

Same assay, conditions: 11 compound concentrations, two-fold serial dilutions; 1 nM USP7, 200 nM Ub-Rho 110

Row | SMILES | IC50 [µM]
9 | COc1ccc(C2C(C#N)=C(N)Oc3nn(C(C)=O)c(-c4cccs4)c32)cc1Br (stereo not drawn) [Compound 14, 2-Acetyl-6-amino-4-(3-bromo-4-methoxyphenyl)-3-(thiophen-2-yl)-2,4-dihydropyrano[2,3-c]pyrazole-5-carbonitrile] | 0.53 ± 0.05
